Experimental data: patent publication US6297245A, “Cisplatin and folic acid administered to treat breast cancer” (Unitech Pharmaceuticals, priority 1999, dated 2001)

Assays:
Assay type in all cases: cell-based
[1] = tested on: human breast cancer cells (MCF-7); test: Growth inhibition of human breast cancer cells (MCF-7)
Description: The results shown the extent of inhibition of cell growth compared to controls expressed in percent inhibition.

[2] = tested on: normal human mammary cells (NHMC); test: Growth inhibition of normal human mammary cells (NHMC) grown in RPMI-10; settings: for Percent Growth Inhibition in NHMC Cells Grown in RPMI-10: RPMI-1640 with 10% fetal calf serum
Description: (§1) The results shown the extent of inhibition of cell growth compared to controls expressed in percent inhibition. The results are shown as follows:
RPMI-10 refers to standard RPMI-1640 medium with 10% fetal calf serum added.

[3] = tested on: normal human mammary cells (NHMC); test: Growth inhibition of normal human mammary cells (NHMC) grown at low calcium concentration (40 μM); settings: calcium 40 μM
Protocol: as §1
Table 3 Percent Growth Inhibition in NHMC Cells Grown at Low Calcium Concentration (40 μM).

Structure (SMILES): N.N.[Cl][Pt][Cl] [cisplatin, cis-diamminedichloroplatinum]
- Percent Growth Inhibition in MCF-7 Cells ([1]; 5 μL): 25%
- Percent Growth Inhibition in MCF-7 Cells ([1]; 10 μL): 49%
- Percent Growth Inhibition in MCF-7 Cells ([1]; 25 μL): 92%
- inhibitions on MCF-7, comparison of cisplatin and #801C ([1]; in words): essentially the same
- Percent Growth Inhibition in NHMC Cells Grown in RPMI-10 ([2]; 1/100): 88%
- Percent Growth Inhibition in NHMC Cells Grown in RPMI-10 ([2]; 1/200): 46%
- Percent Growth Inhibition in NHMC Cells Grown in RPMI-10 ([2]; 1/400): 0%
- inhibitions on NHMC, comparison of cisplatin and #801C ([2]; in words, RPMI-10): not significantly different
- Percent Growth Inhibition in NHMC Cells Grown at Low Calcium Concentration (40 μM) ([3]; 1/100): 32%
- Percent Growth Inhibition in NHMC Cells Grown at Low Calcium Concentration (40 μM) ([3]; 1/200): 31%
- Percent Growth Inhibition in NHMC Cells Grown at Low Calcium Concentration (40 μM) ([3]; 1/400): 27%
